From US8697081B2, “Method of modulating neovascularization” (The Regents of the University of Michigan, priority 2008, dated 2014)

Legend:
[1] = test system: Human umbilical vein endothelial cells; test: Chromatin organization (GFP-H2B, H3K9me3) and histone H3/H4 acetylation; format: cell-based; details: 3-D culture, VEGF/HGF-stimulated, blebbistatin or nocodazole
From the text: At sites of tissue damage, inflammation or neoplasia, fibrinogen is converted into a 3-D meshwork of fibrin fibrils that serve as a structural support for endothelial cells undergoing neovascularization (Chun et al. 2006. Cell, 125: 577-591; Hiraoka et al. 1998. Cell, 95: 365-377; Schafer and Werner. 2008. Nat. Rev. Mol. Cell Biol., 9: 628-638; Zhou et al. 2008. Genes Dev., 22: 1231-1243). This process can be recapitulated in vitro by embedding serum-supplemented human endothelial cells within a 3-D fibrin gel in the presence of the pro-angiogenic factors, VEGF and HGF. Human umbilical vein endothelial cells were isolated from umbilical cords by perfusion of the umbilical vein with type 3 collagenase (Worthington, Lakewood, N.J.) and cultured in Medium-199 (Invitrogen, Carlsbad, Calif.) with 20% human serum and 50 μg/ml endothelial cell growth supplement (ECGS; BD Biosciences, Franklin Lakes, N.J.). For 3-D culture, endothelial cells were suspended in a solution of thrombin and aprotinin (Sigma, St. Louis, Mo.) and mixed 1:1 with a solution of 6 mg/ml fibrinogen (Calbiochem, Gibbstown, N.J.). Vasculogenesis was triggered by treatment with 100 ng/ml VEGF, 50 ng/ml HGF (Genentech, San Francisco, Calif.). Fibronectin fibrillogenesis was tracked in 3-D by co-culture with human fibronectin (Sigma) labeled with Alexa-594 (Invitrogen).
Yet, multi-lobed nuclei and anomalous nuclear pore complex distributions can be observed in laminopathies, a pleiotropic series of genetic disorders wherein mutations in lamin or emerin impact chromatin organization, histone modifications, and transcriptional activity (Csoka et al., 2004. Aging Cell, 3: 235-243; Dechat et al., 2008. Genes Dev, 22: 832-853; Dillon, 2008. Dev Cell, 15: 182-186; Malhas et al., 2007. J. Cell Biol., 176: 593-603; Mendjan et al., 2006. Mol. Cell, 21: 811-823; Shumaker et al., 2006. Proc. Natl. Acad. Sci. USA, 103: 8703-8708; Tang et al., 2008. J. Cell Sci., 121: 1014-1024). To determine whether VEGF/HGF-dependent changes in nuclear shape similarly affect chromatin structure/function, chromatin packaging was tracked at the single-endothelial cell level by monitoring GFP-tagged histone H2B or pericentromeric constitutive heterochromatin localization. […] heterochromatin localization was visualized by immunostaining for trimethylated lysine 9 of histone H3 (H3K9me3) (Shumaker, supra; Tang, supra).
Histone acetylation can be regulated by chromatin positioning within the nucleus (Finlan et al., 2008. PLoS Genet, 4: e1000039; Somech et al., 2005. J. Cell Sci., 118: 4017-4025). Thus, the acetylation status of histones H3 and H4 was assessed as functional markers of changes in chromatin organization. […]

[2] = test system: β-actin, α-actinin, and MLC2; test: Western blot with semi-quantitative densitometry of cytoskeletal proteins; format: cell-based, human; details: 3-D fibrin gel
From the text: Tractional forces exerted at cell-matrix adhesion sites require the activation of an actinomyosin motor complex whose assembly is tightly linked to actin cytoskeleton organization, non-muscle myosin II isoform expression, and the rigidity of the surrounding substratum (Meshel et al. 2005. Nat. Cell Biol., 7(2): 157-164; Engler, supra; and Even-Ram, supra; Yoneda et al. 2007. Mol. Cell. Biol., 19(1): 66-75). β-actin, α-actinin, myosin light chain-2 (MLC2), and non-muscle myosin IIA and IIB isoform (NMMIIA and NMMIIB, respectively) protein levels were monitored in 3-D embedded endothelial cells to determine the effect of Fn matrix inhibition on the expression of gene products critical to the generation of tractional forces. Endothelial cells were cultured in 3-D fibrin gels for 2 days with either the FUD peptide or the control Del29 peptide. Levels of β-actin, α-actinin, NMMIIA, NMMIIB, and MLC2 were measured by Western blot, with ERK1/2 serving as the loading control. As assessed by semi-quantitative densitometry, the levels of β-actin, actinin and MLC2 were 58±7% (n=5; mean±1 SD), 62% (n=2), and 60±12% (n=3; mean±1 SD) of control, respectively.

Compound | chromatin distribution [1] | levels of acetylated histones H3 and H4 [1] | level of actinin ([2]; 2 days, control Del29 peptide, n=2) | level of MLC2 ([2]; 2 days, control Del29 peptide, n=3, mean±1 SD) | level of β-actin ([2]; 2 days, control Del29 peptide, n=5, mean±1 SD) | levels of β-actin, α-actinin, and MLC2 ([2]; growth factor-stimulated)
Cc1ccc2c(c1)C(=O)C1(O)CCN(c3ccccc3)C1=N2 (stereo not drawn) [blebbistatin] | chromatin condensations at the nuclear periphery with increased interchromatin space | decreased levels | – | – | – | –
FUD: 49-residue functional upstream domain of Streptococcus pyogenes F1 adhesion protein, SEQ ID NO: 10; fibronectin fibril assembly inhibitor (KDQSPLAGESGETEYITEVYGNQQNPVDIDKKLPNETGFSGNMVETEDT; Streptococcus pyogenes; Functional Upstream Domain (FUD) of F1 adhesion protein) | – | – | 62 % of control | 60±12 % of control | 58±7 % of control | markedly reduced
